From patent US20070179154A1, “Coumarin derivatives, process for their production and use thereof” (Takeda Pharmaceutical Company Limited, priority 2002, published 2007)

| melting point | SMILES |
| --- | --- |
| 270 to 272 °C | Cc1cc2c(-c3cccc(C(=O)O)c3)c(CC(=O)Nc3ccc(Cl)cc3C(F)(F)F)c(=O)oc2cc1Cl [Example 1, 3-[7-chloro-3-[2-[[4-chloro-2-(trifluoromethyl)phenyl]amino]-2-oxoethyl]-6-methyl-2-oxo-2H-chromen-4-yl]benzoic acid] |
| 278 to 280 °C | Cc1cc2c(-c3cccc(C(=O)O)c3)c(CC(=O)Nc3ccc(F)cc3C(F)(F)F)c(=O)oc2cc1Cl [Example 2] |
| 160 to 162 °C | CCOC(=O)/C=C/c1cc(-c2c(CC(=O)Nc3ccc(Cl)cc3C(F)(F)F)c(=O)oc3cc(Cl)c(C)cc23)ccc1F [Example 3, ethyl (2E)-3-[5-[7-chloro-3-[2-[[4-chloro-2-(trifluoromethyl)phenyl]amino]-2-oxoethyl]-6-methyl-2-oxo-2H-chromen-4-yl]-2-fluorophenyl]-2-propenoate] |
| 206 to 209 °C | CCOC(=O)/C=C/c1cccc(-c2c(CC(=O)Nc3ccc(F)cc3C(F)(F)F)c(=O)oc3cc(C)c(Cl)cc23)c1 [Example 5, ethyl (2E)-3-[3-[6-chloro-3-[2-[[4-fluoro-2-(trifluoromethyl)phenyl]amino]-2-oxoethyl]-7-methyl-2-oxo-2H-chromen-4-yl]phenyl]-2-propenoate] |
| 151 to 153 °C | CCOC(=O)/C=C/c1cccc(-c2c(CC(=O)Nc3ccc(F)cc3C(F)(F)F)c(=O)oc3cc(Cl)c(F)cc23)c1 [Example 6, ethyl (2E)-3-[3-[7-chloro-6-fluoro-3-[2-[[4-fluoro-2-(trifluoromethyl)phenyl]amino]-2-oxoethyl]-2-oxo-2H-chromen-4-yl]phenyl}-2-propenoate] |
| 166 to 169 °C | CCOC(=O)/C=C/c1cccc(-c2c(CC(=O)Nc3ccc(F)cc3C(F)(F)F)c(=O)oc3cc(Cl)ccc23)c1 [Example 7, ethyl (2E)-3-[3-[7-chloro-3-[2-[[4-fluoro-2-(trifluoromethyl)phenyl]amino]-2-oxoethyl]-2-oxo-2H-chromen-4-yl]phenyl]-2-propenoate] |
| 121 to 123 °C | CCOC(=O)CCc1cccc(-c2c(CC(=O)Nc3ccc(F)cc3C(F)(F)F)c(=O)oc3cc(Cl)c(C)cc23)c1 [Example 8, ethyl 3-[5-[7-chloro-3-[2-[[4-fluoro-2-(trifluoromethyl)phenyl]amino]-2-oxoethyl]-6-methyl-2-oxo-2H-chromen-4-yl]phenyl]propionate] |
| 115 to 117 °C | CCOC(=O)CCc1cccc(-c2c(CC(=O)Nc3ccccc3C(F)(F)F)c(=O)oc3cc(Cl)c(C)cc23)c1 [Example 9, ethyl 3-[3-[7-chloro-6-methyl-3-[2-[[2-(trifluoromethyl)phenyl]amino]-2-oxoethyl]-2-oxo-2H-chromen-4-yl]phenyl]propionate] |
| 158 to 160 °C | CCOC(=O)CCc1cccc(-c2c(CC(=O)Nc3ccc(F)cc3C(F)(F)F)c(=O)oc3cc(C)c(Cl)cc23)c1 [Example 10, ethyl 3-[3-[6-chloro-3-[2-[[4-fluoro-2-(trifluoromethyl)phenyl]amino]-2-oxoethyl]-7-methyl-2-oxo-2H-chromen-4-yl]phenyl]propionate] |
| 142 to 144 °C | CCOC(=O)CCc1cccc(-c2c(CC(=O)Nc3ccc(F)cc3C(F)(F)F)c(=O)oc3cc(Cl)c(F)cc23)c1 [Example 11, ethyl 3-[3-[7-chloro-6-fluoro-3-[2-[[4-fluoro-2-(trifluoromethyl)phenyl]amino]-2-oxoethyl]-2-oxo-2H-chromen-4-yl]phenyl]propionate] |
| 164 to 165 °C | CCOC(=O)CCc1cccc(-c2c(CC(=O)Nc3ccc(F)cc3C(F)(F)F)c(=O)oc3cc(Cl)ccc23)c1 [Example 12, ethyl 3-[3-[7-chloro-3-[2-[[4-fluoro-2-(trifluoromethyl)phenyl]amino]-2-oxoethyl]-2-oxo-2H-chromen-4-yl]phenyl]propionate] |
| 163 to 164 °C | CCOC(=O)CCc1cccc(-c2c(CC(=O)Nc3ccc(F)cc3C(F)(F)F)c(=O)oc3ccccc23)c1 [Example 13, ethyl 3-[3-[3-[2-[[4-fluoro-2-(trifluoromethyl)phenyl]amino]-2-oxoethyl]-2-oxo-2H-chromen-4-yl]phenyl]propionate] |
| 212 to 214 °C | Cc1cc2c(-c3cccc(CCC(=O)O)c3)c(CC(=O)Nc3ccc(F)cc3C(F)(F)F)c(=O)oc2cc1Cl [Example 14, 3-[5-[7-chloro-3-[2-[[4-fluoro-2-(trifluoromethyl)phenyl]amino]-2-oxoethyl]-6-methyl-2-oxo-2H-chromen-4-yl]phenyl]propionic acid] |
| 252 to 254 °C | Cc1cc2c(-c3cccc(/C=C/C(=O)O)c3)c(CC(=O)Nc3ccccc3C(F)(F)F)c(=O)oc2cc1Cl [Example 15, (2E)-3-[3-[7-chloro-6-methyl-2-oxo-3-(2-oxo-2-[[2-(trifluoromethyl)phenyl]amino]ethyl)-2H-chromen-4-yl]phenyl]-2-propenoic acid] |
| 272 to 274 °C | Cc1cc2oc(=O)c(CC(=O)Nc3ccc(F)cc3C(F)(F)F)c(-c3cccc(/C=C/C(=O)O)c3)c2cc1Cl [Example 16, (2E)-3-[3-[6-chloro-3-(2-[[4-fluoro-2-(trifluoromethyl)phenyl]amino]-2-oxoethyl)-7-methyl-2-oxo-2H-chromen-4-yl]phenyl]-2-propenoic acid] |
| 245 to 247 °C | O=C(O)/C=C/c1cccc(-c2c(CC(=O)Nc3ccc(F)cc3C(F)(F)F)c(=O)oc3cc(Cl)c(F)cc23)c1 [Example 17, (2E)-3-[3-[7-chloro-6-fluoro-3-[2-[[4-fluoro-2-(trifluoromethyl)phenyl]amino]-2-oxoethyl]-2-oxo-2H-chromen-4-yl]phenyl]-2-propenoic acid] |
| 254 to 257 °C | O=C(O)/C=C/c1cccc(-c2c(CC(=O)Nc3ccc(F)cc3C(F)(F)F)c(=O)oc3cc(Cl)ccc23)c1 [Example 18, (2E)-3-[3-[7-chloro-3-[2-[[4-fluoro-2-(trifluoromethyl)phenyl]amino]-2-oxoethyl]-2-oxo-2H-chromen-4-yl]phenyl]-2-propenoic acid] |
| 277 to 279 °C | Cc1cc2c(-c3ccc(F)c(/C=C/C(=O)O)c3)c(CC(=O)Nc3ccc(Cl)cc3C(F)(F)F)c(=O)oc2cc1Cl [Example 19, (2E)-3-[5-[7-chloro-3-[2-[[4-chloro-2-(trifluoromethyl)phenyl]amino]-2-oxoethyl]-6-methyl-2-oxo-2H-chromen-4-yl]-2-fluorophenyl]-2-propenoic acid] |
| 150 °C (dec.) | Cc1cc2c(-c3cccc(CCC(=O)O)c3)c(CC(=O)Nc3ccccc3C(F)(F)F)c(=O)oc2cc1Cl [Example 20, 3-[3-[7-chloro-6-methyl-2-oxo-3-(2-oxo-2-[[2-(trifluoromethyl)phenyl]amino]ethyl)-2H-chromen-4-yl]phenyl]propionic acid] |
| 240 to 242 °C | Cc1cc2oc(=O)c(CC(=O)Nc3ccc(F)cc3C(F)(F)F)c(-c3cccc(CCC(=O)O)c3)c2cc1Cl [Example 21, 3-[3-[6-chloro-3-(2-[[4-fluoro-2-(trifluoromethyl)phenyl]amino]-2-oxoethyl)-7-methyl-2-oxo-2H-chromen-4-yl]phenyl]propionic acid] |
